As usually defined, the Ki is the dissociation constant of the complex between target and ligand, obtained from inhibition or displacement. In general, half-life refers to how long it takes for the measured level to halve. Lower therefore signals rapid decline. Broadly, the clearance is the rate of elimination divided by the concentration. Low readings indicate a low capacity for elimination, high ones a high capacity for elimination. Broadly, the Cmax is the highest concentration seen after dosing. The term bioavailability denotes the share of a dose that reaches the circulation, judged against a reference dose that is usually intravenous. Low values mean little systemic uptake, high ones much systemic uptake. A word on the IC50: it is the concentration that inhibits the measured activity by half. A high value points to lower potency.

The target in one data set is T1, Matrilysin (Homo sapiens, UniProt P09237).
T1 sequence (P09237 whole entry): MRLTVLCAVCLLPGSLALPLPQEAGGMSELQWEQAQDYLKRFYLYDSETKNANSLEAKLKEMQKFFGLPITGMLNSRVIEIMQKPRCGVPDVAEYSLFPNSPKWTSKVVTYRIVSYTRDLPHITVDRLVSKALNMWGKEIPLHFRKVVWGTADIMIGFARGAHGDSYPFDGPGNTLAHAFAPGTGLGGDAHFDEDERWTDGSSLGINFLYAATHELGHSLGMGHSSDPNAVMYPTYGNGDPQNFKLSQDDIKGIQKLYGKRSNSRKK
The data set is described as follows: Inhibition of human MMP-7.

In a further data set the target is T2, Interstitial collagenase (Homo sapiens, UniProt P03956).
T2 sequence (P03956 whole entry): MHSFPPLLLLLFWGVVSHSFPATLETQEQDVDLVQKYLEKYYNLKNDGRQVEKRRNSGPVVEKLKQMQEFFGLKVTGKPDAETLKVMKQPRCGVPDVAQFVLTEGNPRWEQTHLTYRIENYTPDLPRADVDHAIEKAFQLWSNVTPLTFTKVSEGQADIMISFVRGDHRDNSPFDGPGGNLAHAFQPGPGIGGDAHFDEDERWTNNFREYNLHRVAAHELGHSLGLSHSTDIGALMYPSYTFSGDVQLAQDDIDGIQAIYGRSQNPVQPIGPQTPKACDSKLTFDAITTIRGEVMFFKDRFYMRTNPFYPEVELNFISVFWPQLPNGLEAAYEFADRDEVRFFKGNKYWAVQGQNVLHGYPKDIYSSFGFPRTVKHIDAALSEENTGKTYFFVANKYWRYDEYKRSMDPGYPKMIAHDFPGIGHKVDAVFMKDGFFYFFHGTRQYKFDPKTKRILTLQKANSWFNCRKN
The data set is described as follows: Inhibition of human MMP-1.

The next data set addresses Stromelysin-1 (Homo sapiens, UniProt P08254). As to the kind of experiment: Inhibition of human MMP-3.
The target of data set [1] is Matrix metalloproteinase-9 (Homo sapiens, UniProt P14780). The data set is described as follows: Inhibition of human MMP-9.
Matrix metalloproteinase-9, sequence (P14780 whole entry): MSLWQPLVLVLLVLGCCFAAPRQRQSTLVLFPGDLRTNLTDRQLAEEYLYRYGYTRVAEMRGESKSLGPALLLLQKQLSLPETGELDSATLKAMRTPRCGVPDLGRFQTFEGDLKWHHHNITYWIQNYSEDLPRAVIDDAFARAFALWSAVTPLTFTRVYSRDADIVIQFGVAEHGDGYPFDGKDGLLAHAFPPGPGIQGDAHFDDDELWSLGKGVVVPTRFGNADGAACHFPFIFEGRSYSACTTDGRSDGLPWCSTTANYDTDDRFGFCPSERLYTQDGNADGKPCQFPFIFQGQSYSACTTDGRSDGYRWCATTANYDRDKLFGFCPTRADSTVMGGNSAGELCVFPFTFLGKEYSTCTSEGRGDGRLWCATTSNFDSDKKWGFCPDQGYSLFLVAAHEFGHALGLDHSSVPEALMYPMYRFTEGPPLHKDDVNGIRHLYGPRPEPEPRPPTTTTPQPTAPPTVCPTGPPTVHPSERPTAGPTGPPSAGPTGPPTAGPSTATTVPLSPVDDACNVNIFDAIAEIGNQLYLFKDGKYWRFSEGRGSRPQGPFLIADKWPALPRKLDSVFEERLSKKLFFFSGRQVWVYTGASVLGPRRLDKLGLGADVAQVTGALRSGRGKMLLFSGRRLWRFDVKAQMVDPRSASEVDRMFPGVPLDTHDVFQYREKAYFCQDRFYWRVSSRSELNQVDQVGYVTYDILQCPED
Another data set addresses Neutrophil collagenase (Homo sapiens, UniProt P22894). As to the kind of experiment: Inhibition of human MMP-8.
Data set [2] in a line: Half life in rat. Type of data set: ADME, organism-based. Conditions: in vivo.
Data set [3] concerns the target 72 kDa type IV collagenase (Homo sapiens, UniProt P08253). As to the kind of experiment: Inhibition of human MMP-2.
In a further data set the target is Collagenase 3 (Homo sapiens, UniProt P45452). As to the kind of experiment: Inhibition of human MMP-13.
Data set [4] addresses Matrix metalloproteinase-14 (Homo sapiens, UniProt P50281). As to the kind of experiment: Inhibition of human MMP-14.
A short description of data set [5]: Clearance in rat. The class given is ADME, organism-based. Conditions: in vivo.
The nature of data set [6]: Cmax in rat. Conditions: in vivo. Type of data set: ADME, organism-based.
Data set [7] is described as follows: Bioavailability in rat. The class given is ADME, organism-based. Conditions: in vivo.

Where only a bound is given, the exact number is not on record here.

Neutrophil collagenase, sequence (P22894 whole entry): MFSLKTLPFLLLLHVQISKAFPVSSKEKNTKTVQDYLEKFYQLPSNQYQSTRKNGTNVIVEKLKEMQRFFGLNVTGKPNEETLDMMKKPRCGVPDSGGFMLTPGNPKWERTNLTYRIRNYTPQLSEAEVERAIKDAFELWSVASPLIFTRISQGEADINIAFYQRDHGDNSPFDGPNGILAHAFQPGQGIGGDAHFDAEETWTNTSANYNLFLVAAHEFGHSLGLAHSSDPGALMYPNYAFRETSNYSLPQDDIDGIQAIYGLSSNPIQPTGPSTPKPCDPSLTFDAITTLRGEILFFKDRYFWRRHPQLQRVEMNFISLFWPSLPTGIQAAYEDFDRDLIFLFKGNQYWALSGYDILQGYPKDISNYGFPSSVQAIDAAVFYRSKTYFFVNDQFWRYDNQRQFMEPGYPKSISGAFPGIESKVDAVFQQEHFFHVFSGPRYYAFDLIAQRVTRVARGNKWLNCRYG
Stromelysin-1, sequence (P08254 whole entry): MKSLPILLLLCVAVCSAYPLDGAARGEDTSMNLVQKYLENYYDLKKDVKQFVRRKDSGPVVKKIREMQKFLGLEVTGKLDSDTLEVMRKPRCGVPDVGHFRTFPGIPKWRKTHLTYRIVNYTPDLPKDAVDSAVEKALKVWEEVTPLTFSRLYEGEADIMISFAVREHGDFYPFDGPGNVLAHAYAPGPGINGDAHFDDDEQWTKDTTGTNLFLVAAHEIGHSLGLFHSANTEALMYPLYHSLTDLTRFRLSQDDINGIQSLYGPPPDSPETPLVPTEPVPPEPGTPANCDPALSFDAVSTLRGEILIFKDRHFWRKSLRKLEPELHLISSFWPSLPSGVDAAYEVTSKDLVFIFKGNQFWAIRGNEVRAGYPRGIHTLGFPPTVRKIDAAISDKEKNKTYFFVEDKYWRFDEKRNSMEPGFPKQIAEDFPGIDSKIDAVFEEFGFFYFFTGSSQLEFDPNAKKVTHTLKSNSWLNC
72 kDa type IV collagenase, sequence (P08253 whole entry): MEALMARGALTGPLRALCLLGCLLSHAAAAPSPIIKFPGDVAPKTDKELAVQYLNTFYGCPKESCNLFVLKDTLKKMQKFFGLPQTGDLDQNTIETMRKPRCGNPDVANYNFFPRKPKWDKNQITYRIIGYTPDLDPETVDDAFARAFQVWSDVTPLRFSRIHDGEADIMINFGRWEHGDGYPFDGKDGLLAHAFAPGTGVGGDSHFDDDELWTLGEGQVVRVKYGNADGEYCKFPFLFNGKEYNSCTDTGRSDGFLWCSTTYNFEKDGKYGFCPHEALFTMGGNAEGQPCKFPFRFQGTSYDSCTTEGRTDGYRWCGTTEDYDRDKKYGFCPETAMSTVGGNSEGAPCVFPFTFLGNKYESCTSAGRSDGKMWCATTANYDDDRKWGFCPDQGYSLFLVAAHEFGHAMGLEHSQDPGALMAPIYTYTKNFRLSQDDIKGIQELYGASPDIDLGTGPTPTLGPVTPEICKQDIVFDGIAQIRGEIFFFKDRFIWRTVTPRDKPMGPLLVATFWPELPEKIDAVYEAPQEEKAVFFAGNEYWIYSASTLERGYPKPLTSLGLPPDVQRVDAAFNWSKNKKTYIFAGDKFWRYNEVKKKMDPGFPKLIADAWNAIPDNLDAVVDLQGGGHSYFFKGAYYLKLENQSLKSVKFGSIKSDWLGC

`Cc1ccc(-c2nnnn2CCCOc2ccc(S(=O)(=O)C3(C(=O)NO)CCOCC3)cc2)nc1`: the Ki on Matrilysin is 970 nM; at Interstitial collagenase it was above 10000 nM; on Stromelysin-1, 3 nM; in [1] it was 2400 nM; at Neutrophil collagenase, 250 nM; in [3] it was 400 nM. In addition, the values for the Ki (on Collagenase 3; in data set [4]) were 0.6 nM and above 10000 nM, respectively. The same compound gave a half-life in data set [2] of 4.8 h. This compound also yielded a clearance in [5] of 63 mL/min/kg. The Cmax in data set [6] was found to be 3000 ng/mL. Moreover, the bioavailability in data set [7] came to 5%.

Regarding `COCCN1CCC(C(=O)NO)(S(=O)(=O)c2ccc(OCCCn3nnc(-c4ccc(OC(F)(F)F)cc4)n3)cc2)CC1`, the Ki at Matrilysin was 8600 nM; at Interstitial collagenase, above 10000 nM; on Stromelysin-1 it was 8.7 nM; at Neutrophil collagenase, 8000 nM; at Collagenase 3 it was 0.13 nM; in data set [4], above 10000 nM. The compound also showed a half-life in [2] of 1.3 h. This compound also had a Cmax in data set [6] of 1400 ng/mL. Further, the bioavailability in data set [7] is 26%.

With `COc1ccc(C(=O)NCCCOc2ccc(S(=O)(=O)C3(C(=O)NO)CCOCC3)cc2)cc1`, the Ki at Interstitial collagenase is above 10000 nM; on Stromelysin-1, 900 nM; in data set [1], above 10000 nM; on Neutrophil collagenase, 900 nM; in data set [3], 550 nM; at Collagenase 3 it was 1.6 nM. In data set [4], the Ki is above 10000 nM. For the same compound, in [2], the half-life is 0.59 h. The compound further registered a Cmax in [6] of 0.02 ng/mL.

Turning to `O=C(NO)C1(S(=O)(=O)c2ccc(OCCCn3cncc3-c3ccc(OC(F)(F)F)cc3)cc2)CCOCC1`, the Ki is above 10000 nM at Matrilysin; above 10000 nM at Interstitial collagenase; 130 nM on Stromelysin-1; above 10000 nM in [1]; 140 nM on Neutrophil collagenase; 9200 nM in data set [3]. Besides, the Ki at Collagenase 3 is 3.7 nM; in data set [4], above 10000 nM.

In the case of `O=C(NO)C1(S(=O)(=O)c2ccc(OCCCc3nc(-c4ccc(OC(F)(F)F)cc4)no3)cc2)CCOCC1`, the Ki is above 10000 nM on Matrilysin, 31 nM at Stromelysin-1 and 180 nM at Neutrophil collagenase. Also, in data set [2], the half-life is 1.4 h. The compound also yielded a clearance in data set [5] of 14 mL/min/kg. The compound also had a Cmax in data set [6] of 240 ng/mL. In data set [7], this compound had a bioavailability of 22%.

For the compound `O=C(NO)C1(S(=O)(=O)c2ccc(OCCCn3nnc(-c4ccc(OC(F)(F)F)cc4)n3)cc2)CCOCC1`, the Ki was above 10000 nM at Matrilysin; above 10000 nM on Interstitial collagenase; 28 nM on Stromelysin-1; 1200 nM in [1]; 170 nM on Neutrophil collagenase; 410 nM in [3]. The figures for the inhibition constant (Ki) (on Collagenase 3; in data set [4]) were 0.66 nM and above 10000 nM, respectively. The same compound showed a half-life in data set [2] of 2.4 h. In data set [5], this compound came in with a clearance of 12 mL/min/kg. The Cmax in data set [6] was found to be 61 ng/mL. In data set [7], this compound had a bioavailability of 32%.

For the compound `COc1ccc(-c2nnn(CCCOc3ccc(S(=O)(=O)C4(C(=O)NO)CCOCC4)cc3)n2)cc1`, the Ki on Interstitial collagenase was 5600 nM; in data set [4], above 10000 nM. In addition, the IC50 against Stromelysin-1 was 39 nM; in data set [1] it was 1100 nM; at Neutrophil collagenase it was 190 nM.

`CCN1CCC(C(=O)NO)(S(=O)(=O)c2ccc(OCCCc3nc(-c4ccc(OC(F)(F)F)cc4)no3)cc2)CC1`: the Ki was above 10000 nM on Matrilysin; 37 nM at Stromelysin-1; 370 nM in [1]; 260 nM on Neutrophil collagenase; 410 nM in [3]; 2 nM at Collagenase 3. This compound also showed a half-life in data set [2] of 2.4 h. This compound also came in with a clearance in data set [5] of 19 mL/min/kg. The same compound returned a Cmax in data set [6] of 2200 ng/mL. The compound also returned a bioavailability in data set [7] of 28%.

For `O=C(NO)C1(S(=O)(=O)c2ccc(OCCCn3cnc(-c4ccc(OC(F)(F)F)cc4)c3)cc2)CCOCC1`, the Ki at Matrilysin was 6000 nM; on Interstitial collagenase, above 10000 nM; at Stromelysin-1, 59 nM; in data set [1], 1800 nM; on Neutrophil collagenase, 74 nM; in data set [3] it was 530 nM. In addition, the inhibition constant (Ki) at Collagenase 3 was 1.7 nM; in [4], above 10000 nM.

Turning to `O=C(NO)C1(S(=O)(=O)c2ccc(OCCCc3nnnn3-c3ccc(OC(F)(F)F)cc3)cc2)CCOCC1`, the Ki at Matrilysin is 7100 nM; on Interstitial collagenase, above 10000 nM; on Stromelysin-1, 9.9 nM; in [1] it was 1700 nM; on Neutrophil collagenase, 72 nM; in [3] it was 430 nM. Also, the Ki on Collagenase 3 is 1.2 nM; in data set [4], above 10000 nM. Besides, in data set [2], the half-life is 4 h. The same compound displayed a clearance in data set [5] of 42 mL/min/kg. Moreover, in [6], the highest level (Cmax) was 3500 ng/mL. Moreover, in data set [7], the bioavailability worked out at 7.3%.

With `COc1ccc(C(=O)N2CCN(c3ccc(S(=O)(=O)C4(C(=O)NO)CCOCC4)cc3)CC2)cc1`, the 50% inhibitory concentration (IC50) is above 10000 nM on Matrilysin; 90 nM on Stromelysin-1; 1200 nM in data set [1]; 1200 nM on Neutrophil collagenase; 1300 nM in data set [3]; 0.7 nM on Collagenase 3. Further, the Ki (at Interstitial collagenase; in data set [4]) was above 10000 nM throughout. Moreover, the half-life in data set [2] was 1.2 h. The peak level in data set [6] (Cmax) was 4200 ng/mL. In addition, in data set [7], the bioavailability was 14%.

For the compound `Cc1ccc(-c2nnn(CCCOc3ccc(S(=O)(=O)C4(C(=O)NO)CCOCC4)cc3)n2)nc1`, the inhibition constant (Ki) is 3000 nM on Matrilysin; above 10000 nM on Interstitial collagenase; 44 nM at Stromelysin-1; 370 nM in data set [1]; 240 nM at Neutrophil collagenase; 110 nM in data set [3]. Also, the results for the Ki (on Collagenase 3; in data set [4]) were 0.66 nM and above 10000 nM, respectively. In [2], this compound had a half-life of 2 h. The compound further displayed a clearance in [5] of 46 mL/min/kg. This compound showed a peak concentration (Cmax) in [6] of 3500 ng/mL. For the same compound, in data set [7], the bioavailability is 1.7%.

As for `COCCN1CCC(C(=O)NO)(S(=O)(=O)c2ccc(Oc3ccc(OC(F)(F)F)cc3)cc2)CC1`, the results for the Ki on Matrilysin and at Interstitial collagenase were 7000 nM and above 10000 nM, respectively. The half-life in data set [2] was 2.9 h. The IC50 (in data set [3]; against Collagenase 3) was below 0.1 nM each time. The compound further gave a maximum concentration (Cmax) in data set [6] of 21900 ng/mL. Further, in data set [7], the bioavailability was 68%.
